# Results as given in patent US7138361B2, “Herbicidal heterocycles” (E. I. du Pont de Nemours and Company, priority 2000, dated 2006).
# Experiments:
# Type in all cases: in vivo
# [1] = tested on: smallflower flatsedge (Cyperus difformis); assay: Test C flooded paddy test; details: for Flatsedge plant response rating: Flooded Paddy, scale 0 to 100, 0 no effect, 100 complete control; for Plant response rating, Flatsedge / Plant response rating (scale 0 to 100), Flatsedge: flooded paddy test; for Plant response rating, Flatsedge: scale 0 to 100 (0 no effect, 100 complete control)
# Method in brief: (§1)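 Greenhouse-maintained for 12 to 14 days after treatment, the paddy plants (2-leaf stage at application) were scored visually against controls. A score of 0 denotes no effect and a score of 100 denotes complete control.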
# [2] = tested on: barnyardgrass (Echinochloa crus-galli); assay: Test C flooded paddy test; details: for Barnyardgrass plant response rating: Flooded Paddy, scale 0 to 100, 0 no effect, 100 complete control; for Plant response rating, Barnyardgrass / Plant response rating (scale 0 to 100), Barnyardgrass: flooded paddy test; for Plant response rating, Barnyardgrass: scale 0 to 100 (0 no effect, 100 complete control)
# Method in brief: as §1
# [3] = tested on: rice (Oryza saliva); assay: Test C flooded paddy test; details: for Rice plant response rating: Flooded Paddy, scale 0 to 100, 0 no effect, 100 complete control; for Plant response rating, Rice / Plant response rating (scale 0 to 100), Rice: flooded paddy test; for Plant response rating, Rice: scale 0 to 100 (0 no effect, 100 complete control)
# Method in brief: as §1
# [4] = tested on: duck salad (Heteranthera limosa); assay: Test C flooded paddy test; details: for Ducksalad plant response rating: Flooded Paddy, scale 0 to 100, 0 no effect, 100 complete control; for Plant response rating, Ducksalad / Plant response rating (scale 0 to 100), Ducksalad: flooded paddy test; for Plant response rating, Ducksalad: scale 0 to 100 (0 no effect, 100 complete control)
# Method in brief: as §1
# [5] = tested on: Sunflower; assay: Test C preemergence; details: Rate 62 g/ha, scale 0 to 100
# [6] = tested on: Surinam grass (Brachiaria decumbens); assay: Test C preemergence; details: for Plant response rating (0 to 100), Surinam grass: Rate 500 g/ha, visual evaluation after 12 to 14 days
# Method in brief: (§2)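 Preemergence: seeds sown then treated. Postemergence: plants 2–18 cm, 1- to 4-leaf. Both with surfactant-containing solvent formulation; visual injury scored 0–100 after 12–14 d.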
# [7] = tested on: common ragweed (Ambrosia elatior); assay: Test C preemergence; details: for Plant response rating (0 to 100), Ragweed, Common: Rate 500 g/ha, visual evaluation after 12 to 14 days
# Method in brief: as §2
# [8] = tested on: Sunflower; assay: Test C preemergence; details: Rate 125 g/ha; scale 0 to 100, 0 no effect, 100 complete control
# [9] = tested on: wild oat (Avena fatua); assay: Test B postemergence; details: Rate 125 g/ha, scale 0 to 100, 0 no effect, 100 complete control
# Method in brief: (§3)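 Ratings on a 0 to 100 visual scale (100 complete control) compare treated plants with controls 13 to 15 days after application. Treatments were pre- or postemergence sprays of compound in non-phytotoxic solvent with surfactant.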
# [10] = tested on: velvetleaf (Abutilon theophrasti); assay: Test B postemergence; details: Rate 125 g/ha, scale 0 to 100, 0 no effect, 100 complete control
# Method in brief: as §3
# [11] = tested on: cocklebur (Xanthium strumarium); assay: Test B postemergence
# Method in brief: as §3
# [12] = tested on: Surinam grass (Brachiaria decumbens); assay: Test B postemergence
# Method in brief: as §3
# [13] = tested on: barnyardgrass (Echinochloa crus-galli); assay: Test B postemergence
# Method in brief: as §3
# [14] = tested on: pigweed (Amaranthus retroflexus); assay: Test B postemergence; details: Rate 125 g/ha, scale 0 to 100, 0 no effect, 100 complete control
# Method in brief: as §3
# [15] = tested on: corn (Zea mays); assay: Test B postemergence
# Method in brief: as §3
# [16] = tested on: morning glory (Ipomoea hederacea); assay: Test B postemergence; details: Rate 125 g/ha, scale 0 to 100, 0 no effect, 100 complete control
# Method in brief: as §3
# [17] = tested on: wheat (Triticum aestivum); assay: Test B postemergence; details: Rate 125 g/ha, scale 0 to 100, 0 no effect, 100 complete control
# Method in brief: as §3
# [18] = tested on: blackgrass (Alopecurus myosuroides); assay: Test B postemergence
# Method in brief: as §3
# [19] = tested on: lambsquarters (Chenopodium album); assay: Test B postemergence; details: Rate 125 g/ha, scale 0 to 100, 0 no effect, 100 complete control
# Method in brief: as §3
# [20] = tested on: giant foxtail (Setaria faberii); assay: Test B postemergence; details: Rate 125 g/ha, scale 0 to 100, 0 no effect, 100 complete control
# Method in brief: as §3
# [21] = tested on: crabgrass (Digitaria sanguinalis); assay: Test B postemergence; details: Rate 125 g/ha, scale 0 to 100, 0 no effect, 100 complete control
# Method in brief: as §3
# [22] = tested on: Sunflower; assay: Test C preemergence; details: Rate 250 g/ha, scale 0 to 100, 0 no effect, 100 complete control
# [23] = Rate 125 g/ha, scale 0 to 100, 0 no effect, 100 complete control
# [24] = preemergence, Rate 62 g/ha, scale 0 to 100
# [25] = preemergence, Rate 250 g/ha, scale 0 to 100, 0 no effect, 100 complete control
# [26] = Rate 500 g/ha, scale 0 to 100, 0 is no effect, 100 is complete control, 13 to 15 days
# [27] = Rate 16 g/ha, visually evaluated after 12 to 14 days, 0 = no effect, 100 = complete control
# [28] = Rate 62 g/ha, visually evaluated after 12 to 14 days, 0 = no effect, 100 = complete control
# [29] = under head Rate 16 g/ha, (own rate not given), after 12 to 14 days
compound,measurement,setting,value
CCC(C)c1ccn(C2CCN(c3ccc(Cl)c(OC)c3)C2=O)n1 (centres unmarked) [Compound 119],Flatsedge plant response rating,[1]; Rate 250 g/ha,100
same,Flatsedge plant response rating,[1]; Rate 500 g/ha,100
same,"Plant response rating, Flatsedge",[1]; Rate 62 g/ha,0
same,"Plant response rating, Flatsedge",[1]; Rate 125 g/ha,100
same,Barnyardgrass plant response rating,[2]; Rate 250 g/ha,70
same,Barnyardgrass plant response rating,[2]; Rate 500 g/ha,80
same,"Plant response rating, Barnyardgrass",[2]; Rate 62 g/ha,30
same,"Plant response rating, Barnyardgrass",[2]; Rate 125 g/ha,70
same,Rice plant response rating,[3]; Rate 250 g/ha,50
same,Rice plant response rating,[3]; Rate 500 g/ha,50
same,"Plant response rating, Rice",[3]; Rate 62 g/ha,20
same,"Plant response rating, Rice",[3]; Rate 125 g/ha,40
same,Ducksalad plant response rating,[4]; Rate 250 g/ha,90
same,Ducksalad plant response rating,[4]; Rate 500 g/ha,100
same,"Plant response rating, Ducksalad",[4]; Rate 62 g/ha,0
same,"Plant response rating, Ducksalad",[4]; Rate 125 g/ha,20
same,"Plant response rating, Sunflower",[5],40
same,"Plant response rating, Surinam grass",[6]; [23],100
same,"Plant response rating, Surinam grass",[6]; [24],100
same,"Plant response rating (0 to 100), Surinam grass",[6]; preemergence,100
same,"Plant response rating, Surinam grass",[6]; [25],100
same,"Plant response rating, Ragweed, Common",[7]; [23],100
same,"Plant response rating, Ragweed, Common",[7]; [24],100
same,"Plant response rating (0 to 100), Ragweed, Common",[7]; preemergence,100
same,"Plant response rating, Ragweed, Common",[7]; [25],100
same,"Plant response rating, Sunflower",[8],40
same,"Plant response rating, Wild Oat",[9],0
same,"Plant response rating, Velvetleaf",[10],30
same,"Plant response rating, Cocklebur",[11]; [23],90
same,"Plant response rating, Cocklebur",[11]; [26],100
same,"Plant response rating, Surinam grass",[12]; [23],20
same,"Plant response rating, Surinam grass",[12]; [26],50
same,"Plant response rating, Barnyardgrass",[13]; [23],30
same,"Plant response rating, Barnyardgrass",[13]; [26],100
same,"Plant response rating, Pigweed",[14],60
same,"Plant response rating, Corn",[15]; [23],0
same,"Plant response rating, Corn",[15]; [26],0
same,"Plant response rating, Morningglory",[16],30
same,"Plant response rating, Wheat",[17],20
same,"Plant response rating, Blackgrass",[18]; [23],0
same,"Plant response rating, Blackgrass",[18]; [26],0
same,"Plant response rating, Lambsquarters",[19],90
same,"Plant response rating, Foxtail, Giant",[20],0
same,"Plant response rating, Crabgrass",[21],40
same,"Plant response rating, Sunflower",[22],40
CCC(CC)c1ccn(C2OCN(c3cccc(OC(F)F)c3)C2=O)n1 (centres unmarked) [Compound 131],Flatsedge plant response rating,[1]; Rate 250 g/ha,100
same,Flatsedge plant response rating,[1]; Rate 500 g/ha,100
same,"Plant response rating, Flatsedge",[1]; Rate 125 g/ha,100
same,"Plant response rating (scale 0 to 100), Flatsedge",[1]; [27],90
same,"Plant response rating (scale 0 to 100), Flatsedge",[1]; [28],90
same,"Plant response rating (scale 0 to 100), Flatsedge",[1]; [29],90
same,Barnyardgrass plant response rating,[2]; Rate 250 g/ha,100
same,Barnyardgrass plant response rating,[2]; Rate 500 g/ha,100
same,"Plant response rating, Barnyardgrass",[2]; Rate 125 g/ha,100
same,"Plant response rating (scale 0 to 100), Barnyardgrass",[2]; [27],60
same,"Plant response rating (scale 0 to 100), Barnyardgrass",[2]; [28],100
same,"Plant response rating (scale 0 to 100), Barnyardgrass",[2]; [29],50
same,Rice plant response rating,[3]; Rate 250 g/ha,80
same,Rice plant response rating,[3]; Rate 500 g/ha,90
same,"Plant response rating, Rice",[3]; Rate 125 g/ha,15
same,"Plant response rating (scale 0 to 100), Rice",[3]; [27],0
same,"Plant response rating (scale 0 to 100), Rice",[3]; [28],0
same,"Plant response rating (scale 0 to 100), Rice",[3]; [29],0
same,Ducksalad plant response rating,[4]; Rate 250 g/ha,100
same,Ducksalad plant response rating,[4]; Rate 500 g/ha,100
same,"Plant response rating, Ducksalad",[4]; Rate 125 g/ha,100
same,"Plant response rating (scale 0 to 100), Ducksalad",[4]; [27],70
same,"Plant response rating (scale 0 to 100), Ducksalad",[4]; [28],80
same,"Plant response rating (scale 0 to 100), Ducksalad",[4]; [29],20
same,"Plant response rating, Sunflower",[5],20
same,"Plant response rating, Surinam grass",[6]; [23],100
same,"Plant response rating, Surinam grass",[6]; [24],100
same,"Plant response rating (0 to 100), Surinam grass",[6]; preemergence,100
same,"Plant response rating, Surinam grass",[6]; [25],100
same,"Plant response rating, Ragweed, Common",[7]; [23],0
same,"Plant response rating, Ragweed, Common",[7]; [24],0
same,"Plant response rating (0 to 100), Ragweed, Common",[7]; preemergence,100
same,"Plant response rating, Ragweed, Common",[7]; [25],0
same,"Plant response rating, Sunflower",[8],20
same,"Plant response rating, Wild Oat",[9],20
same,"Plant response rating, Velvetleaf",[10],0
same,"Plant response rating, Cocklebur",[11]; [23],30
same,"Plant response rating, Cocklebur",[11]; [26],70
same,"Plant response rating, Surinam grass",[12]; [23],0
same,"Plant response rating, Surinam grass",[12]; [26],30
same,"Plant response rating, Barnyardgrass",[13]; [23],80
same,"Plant response rating, Barnyardgrass",[13]; [26],100
same,"Plant response rating, Pigweed",[14],80
same,"Plant response rating, Corn",[15]; [23],0
same,"Plant response rating, Corn",[15]; [26],20
same,"Plant response rating, Morningglory",[16],20
same,"Plant response rating, Wheat",[17],0
same,"Plant response rating, Blackgrass",[18]; [23],0
same,"Plant response rating, Blackgrass",[18]; [26],0
same,"Plant response rating, Lambsquarters",[19],90
same,"Plant response rating, Foxtail, Giant",[20],20
same,"Plant response rating, Crabgrass",[21],0
same,"Plant response rating, Sunflower",[22],20
